# Source: patent publication US9708336B2, “Metallo-beta-lactamase inhibitors” (priority 2014, dated 2017)
# Where a name gives a salt, the structure may show the parent alone. Read-outs that look alike come from different tables or passages of the source.
# What was measured:
# [1] = test system: Escherichia coli expressing NDM-1 (CLB30016); assay: Antibiotic potentiation activity: synergistic concentration (MITC95) with imipenem, OD600 growth; assay type: cell-based; conditions: for Escherichia coli expressing NDM-1 (CLB 30016) MITC95: concentration giving 95% inhibition of bacterial growth; for Escherichia coli MITC95: Escherichia coli expressing NDM-1 (CLB30016), 95% growth inhibition
# Summary of the method: (§1)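 Test compound was combined with 4 μg/ml imipenem (or optionally 1 μg/ml), or with no antibiotic, against saline-suspended colonies diluted 1:100 in 1.1×CAMHB. Strains were E. coli NDM-1, S. marcescens IMP-1 and K. pneumoniae VIM-1. Plates were incubated 22–24 h at 35 °C before absorbance (OD600) readout.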
# [2] = test system: Serratia marcescens expressing IMP-1 (CL5741); assay: as above; assay type: cell-based; conditions: for Serratia marcescens expressing IMP-1 (CL5741) MITC95: concentration giving 95% inhibition of bacterial growth; for Serratia marcescens MITC95: Serratia marcescens expressing IMP-1 (CL5741), 95% growth inhibition
# Summary of the method: as §1
# [3] = test system: Klebsiella pneumoniae expressing VIM-1 (IHMA599644); assay: as above; assay type: cell-based; conditions: for Klebsiella pneumoniae expressing VIM-1 (IHMA 599644) MITC95: concentration giving 95% inhibition of bacterial growth; for Klebsiella pneumoniae MITC95: Klebsiella pneumoniae expressing VIM-1 (IHMA599644), 95% growth inhibition
# Summary of the method: as §1
# [4] = test system: Escherichia coli expressing NDM-1 (CLB30005); assay: as above; assay type: cell-based; conditions: for Escherichia coli expressing NDM-1 (CLB 30005) MITC95: concentration giving 95% inhibition of bacterial growth; for Escherichia coli MITC95: Escherichia coli expressing NDM-1 (CLB30005), 95% growth inhibition
# Summary of the method: as §1
# IMP-1 = IMP-1 (Serratia marcescens, UniProt P52699); assay: biochemical; assay type: biochemical; conditions: read-out: IMP-1 IC50
# VIM-1 = VIM-1 (Pseudomonas aeruginosa (strain ATCC 15692 / DSM 22644 / CIP 104116 / JCM 14847 / LMG 12228 / 1C / PRS 101 / PAO1), UniProt A0A0F7KYQ8); assay: Enzyme activity: determination of IC50, fluorescence assay with CCF2-FA substrate (VIM-1); assay type: biochemical
# NDM-1 = NDM-1 (Klebsiella pneumoniae, UniProt C7C422); assay: biochemical; assay type: biochemical; conditions: read-out: NDM-1 IC50
# [5] = fluorescence assay with CCF2-FA substrate
# [6] = fluorescence assay with CCF2-FA substrate, read-out: VIM-1 IC50
# [7] = IMP-1 enzyme, CCF2-FA fluorescence assay
# [8] = VIM-1 enzyme, CCF2-FA fluorescence assay, read-out: VIM-1 IC50
# [9] = NDM-1 enzyme, CCF2-FA fluorescence assay
# IMP-1, sequence (P52699 whole entry, looked up): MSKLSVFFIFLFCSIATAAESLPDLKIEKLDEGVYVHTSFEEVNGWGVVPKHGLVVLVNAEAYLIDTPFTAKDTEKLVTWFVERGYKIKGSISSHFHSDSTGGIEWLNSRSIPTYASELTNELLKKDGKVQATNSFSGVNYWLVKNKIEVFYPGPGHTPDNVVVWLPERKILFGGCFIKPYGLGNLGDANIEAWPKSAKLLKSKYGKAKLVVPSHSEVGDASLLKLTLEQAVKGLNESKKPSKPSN
# NDM-1, sequence (C7C422 whole entry, looked up, species assumed): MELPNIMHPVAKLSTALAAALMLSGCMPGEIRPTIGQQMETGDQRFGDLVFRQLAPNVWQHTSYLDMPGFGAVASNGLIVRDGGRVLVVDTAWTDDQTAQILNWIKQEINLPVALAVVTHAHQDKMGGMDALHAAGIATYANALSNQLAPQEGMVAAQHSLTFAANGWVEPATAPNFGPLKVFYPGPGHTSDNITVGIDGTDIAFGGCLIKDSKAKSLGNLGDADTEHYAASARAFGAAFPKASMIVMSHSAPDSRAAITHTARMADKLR
SMILES,Escherichia coli expressing NDM-1 (CLB 30016) MITC95 [1] [µM],Serratia marcescens expressing IMP-1 (CL5741) MITC95 [2] [µM],Klebsiella pneumoniae expressing VIM-1 (IHMA 599644) MITC95 [3] [µM],Escherichia coli expressing NDM-1 (CLB 30005) MITC95 [4] [µM],IC50 (IMP-1; [5]) [nM],IC50 (VIM-1; [6]) [nM],IC50 (NDM-1; [5]) [nM],Escherichia coli MITC95 [1] [µM],Serratia marcescens MITC95 [2] [µM],Klebsiella pneumoniae MITC95 [3] [µM],Escherichia coli MITC95 [4] [µM],IC50 (IMP-1; [7]) [nM],IC50 (VIM-1; [8]) [nM],IC50 (NDM-1; [9]) [nM],"IC50 (VIM-1; VIM-1 IC50, VIM-1 enzyme, CCF2-FA fluorescence assay) [nM]"
"CS(=O)(=O)Nc1ccc(-c2ccnc(S(N)(=O)=O)c2-c2nn[nH]n2)cc1 [Example 206, 4-(4-(methylsulfonamido)phenyl)-3-(2H-tetrazol-5-yl)pyridine-2-sulfonamide]",0.375,4.125,3.125,0.1953,91.5,14.2,11.4,,,,,,,,
"CC(=O)Nc1ccc(-c2ccnc(S(N)(=O)=O)c2-c2nn[nH]n2)cc1 [Example 214, N-(4-(2-sulfamoyl-3-(2H-tetrazol-5-yl)pyridin-4-yl)phenyl)acetamide]",0.375,3.344,37.5,0.1953,98.4,129,13.2,,,,,,,,
"Nc1ccc(-c2ccnc(S(N)(=O)=O)c2-c2nn[nH]n2)cn1 [Example 215, 6-amino-3′-(2H-tetrazol-5-yl)-[3,4′-bipyridine]-2′-sulfonamide]",0.25,18.75,12.5,0.1953,1860,494,90.9,,,,,,,,
"Nc1ccc(-c2cccc(S(N)(=O)=O)c2-c2nnn[nH]2)cn1 [Example 298, 3-(6-Aminopyridin-3-yl)-2-(1H-tetrazol-5-yl)benzene sulfonamide, TFA salt]",,,,,,,,0.04688,8.333,12.5,0.1953,776,251,71.7,
"NS(=O)(=O)c1cccc(-c2cnc3cc[nH]c3c2)c1-c1nn[nH]n1 [Example 310, 3-(1H-pyrrolo[3,2-b]pyridin-6-yl)-2-(2H-tetrazol-5-yl)benzenesulfonamide]",,,,,,,,0.02344,9.375,4.167,0.1953,420,46,0.994,
"NS(=O)(=O)c1cccc(-c2cnc3ccoc3c2)c1-c1nn[nH]n1 [Example 311, 3-(furo[3,2-b]pyridin-6-yl)-2-(2H-tetrazol-5-yl)benzenesulfonamide]",,,,,,,,0.7813,3.906,4.688,0.1953,129,8.16,1.11,
"NS(=O)(=O)c1cccc(-c2cnc3[nH]ccc3c2)c1-c1nn[nH]n1 [Example 312, 3-(1H-pyrrolo[2,3-b]pyridin-5-yl)-2-(2H-tetrazol-5-yl)benzenesulfonamide]",,,,,,,,0.5859,5.469,3.125,0.3906,107,6.5,0.95,
"NS(=O)(=O)c1cccc(-c2ccc3[nH]ncc3c2)c1-c1nn[nH]n1 [Example 313, 3-(1H-indazol-5-yl)-2-(2H-tetrazol-5-yl)benzenesulfonamide]",,,,,,,,0.5859,3.906,7.031,0.4635,66.9,13.4,0.77,
"Cc1ccncc1-c1cccc(S(N)(=O)=O)c1-c1nn[nH]n1 [Example 317, 3-(4-methylpyridin-3-yl)-2-(2H-tetrazol-5-yl)benzenesulfonamide]",,,,,,,,0.1875,9.375,18.75,0.125,360,,5.38,46
"NS(=O)(=O)c1cccc(-c2ccc3nccn3c2)c1-c1nn[nH]n1 [Example 318, 3-(imidazo[1,2-a]pyridin-6-yl)-2-(2H-tetrazol-5-yl)benzenesulfonamide]",,,,,,,,0.0625,6.25,4.688,0.1953,295,24.6,2.13,
"NS(=O)(=O)c1cccc(-c2ccnc3ccccc23)c1-c1nn[nH]n1 [Example 319, 3-(quinolin-4-yl)-2-(2H-tetrazol-5-yl)benzenesulfonamide]",,,,,,,,3.906,3.906,3.906,0.3906,62.2,0.886,0.551,
